In patent publication US6410558B1, “Fungicides for the control of take-all disease of plants” (Monsanto Technology LLC, priority 1991, dated 2002):

Test system: Gaeumannomyces graminis var. tritici (Ggt)
Assay: In vitro Assay: mycelial growth of Ggt on minimal media agar plates containing test compound
Assay type: cell-based
Conditions: dark, 19-20° C., 4 to 5 days, diameter of mycelial growth; for inhibition at 0.1 ppm / inhibition at 1 ppm / inhibition at 10 ppm: Gaeumannomyces graminis; for inhibition at 0.1 ppm: read-out: In vitro (ppm) 0.1, Percent Inhibition; for inhibition at 1 ppm: read-out: In vitro (ppm) 1, Percent Inhibition; for inhibition at 10 ppm: read-out: In vitro (ppm) 10, Percent Inhibition
Method: The test compounds (0.25 mL of an appropriate stock solution in acetone) are incorporated into 25 mL minimal media agar [(prepared by autoclaving a solution of 17.5 g Czapek Dox broth (Difco), 7.5 g purified agar or Bacto-agar (Difco), and 500 mL distilled/deionized water, and then adding 50 μL of 1 mg/mL thiamine hydrochloride and 50 μL of 1 mg/mL biotin in 5% ethanol] and plates are prepared.
Each plate is inoculated by placing in a triangular shape three 4-mm plugs of Gaeumannomyces graminis var. tritici (Ggt) grown on the minimal media agar described above. The plates are incubated in the dark at 19-20° C. for 4 to 5 days. The growth of the fungus is measured as the diameter of the mycelial growth. The result is expressed as Percent Inhibition, calculated as [1-[(mm growth on treated plate −4)/(mm growth on control plate −4)]]×100.

Compound	inhibition at 0.1 ppm (0.1 ppm in minimal media agar) [%]	inhibition at 1 ppm (1 ppm in minimal media agar) [%]	inhibition at 10 ppm (10 ppm in minimal media agar) [%]	In vitro (ppm) 0.1, Percent Inhibition (0.1 ppm in minimal media agar) [%]	In vitro (ppm) 1, Percent Inhibition (1 ppm in minimal media agar) [%]	In vitro (ppm) 10, Percent Inhibition (10 ppm in minimal media agar) [%]
CC(C)N(O)C(=O)c1sc(Cl)cc1[Si](C)(C)C [Example 287, 5-Chloro-N-hydroxy-N-(1-methylethyl)-3-(trimethylsilyl)-2-thiophenecarboxamide]	64	71	78	–	–	–
CCNC(=O)c1cc(N=C=S)ccc1[Si](C)(C)C [Example 245, N-Ethyl-5-isothiocyanato-2-(trimethylsilyl)benzamide]	50	100	100	–	–	–
CCNC(=O)c1c(F)cccc1SC(C)(C)C [Example 90]	–	–	–	6	34	89
C[Si](C)(C)c1cccc(Cl)c1C(=O)NCc1cccs1 [Example 138, 2-Chloro-N-(2-thienylmethyl)-6-(trimethylsilyl)benzamide]	14	36	97	–	–	–
CCNC(=O)n1nccc1[Si](C)(C)C [Example 284, N-Ethyl-5-(trimethylsilyl)-1H-pyrazole-1-carboxamide]	23	35	91	–	–	–
CCCSC(=O)c1c(Cl)cccc1[Si](C)(C)C [Example 79, 2-Chloro-6-(trimethylsilyl)-benzenecarbothioic acid, S-propyl ester]	12	12	65	–	–	–
C[Si](C)(C)c1cccc(Cl)c1C(=O)NCc1ccccn1 [Example 135, 2-Chloro-N-(2-pyridinylmethyl)-6-(trimethylsilyl)benzamide]	22	17	39	–	–	–
C[Si](C)(C)c1cc(Cl)sc1C(=O)NCCOS(C)(=O)=O [Example 265, 5-Chloro-N-[2[(methylsulfonyl)oxy]ethyl]-3-(trimethylsilyl)-2-thiophenecarboxamide]	5	14	100	–	–	–
CCN(CO)C(=O)c1c(C)cccc1[Si](C)(C)C [Example 143, N-Ethyl-N-(hydroxymethyl)-2-methyl-6-(trimethylsilyl)benzamide]	5	13	74	–	–	–
CCN(CC)C(=O)c1sccc1[Si](C)(C)C [Example 255, N,N-Diethyl-3-(trimethylsilyl)-2-thiophenecarboxamide]	< 0	< 0	73	–	–	–
CC(NC(=O)c1c(Cl)cccc1[Si](C)(C)C)c1ccccc1 (stereo not drawn) [Example 161, 2-Chloro-N-(1-phenylethyl)-6-(trimethylsilyl)benzamide]	22	17	61	–	–	–
CCNC(=O)c1c(I)cccc1[Si](C)(C)C [Example 207, N-Ethyl-2-iodo-6-(trimethylsilyl)benzamide]	31	90	97	–	–	–
C=CCNC(=O)c1sc(Cl)cc1[Si](C)(C)C [Example 262, 5-Chloro-N-(2-propenyl)-3-(trimethylsilyl)-2-thiophenecarboxamide]	13	70	100	–	–	–
CCNC(=O)c1c([Si](C)(C)C)ccc(C#N)c1Cl [Example 229, 2-Chloro-3-cyano-N-ethyl-6-(trimethylsilyl)benzamide]	< 0	28	88	–	–	–
C[Si](C)(C)c1cccc(Cl)c1C(=O)NC1CCC1 [Example 163, 2-Chloro-N-cyclobutyl-6-(trimethylsilyl)benzamide]	24	85	100	–	–	–
CCNC(=O)c1c([Si](C)(C)C)csc1Cl [Example 177, 2-Chloro-N-ethyl-4-(trimethylsilyl)-3-thiophenecarboxamide]	11	19	100	–	–	–
CCNC(=O)c1c(F)cccc1CC(C)(C)C [Example 93, 2-(2,2-Dimethylpropyl)-N-ethyl-6-fluorobenzamide]	< 0	< 0	26	–	–	–
CCCCCCC(C)N(CC)C(=O)c1c(Cl)cccc1[Si](C)(C)C (stereo not drawn) [Example 96, 2-Chloro-N-ethyl-N-(1-methylheptyl)-6-(trimethylsilyl)benzamide]	7	15	48	–	–	–

Compound	inhibition at 0.1 ppm (0.1 ppm in minimal media agar) [%]	inhibition at 1 ppm (1 ppm in minimal media agar) [%]	inhibition at 10 ppm (10 ppm in minimal media agar) [%]	In vitro (ppm) 0.1, Percent Inhibition (0.1 ppm in minimal media agar) [%]	In vitro (ppm) 1, Percent Inhibition (1 ppm in minimal media agar) [%]	In vitro (ppm) 10, Percent Inhibition (10 ppm in minimal media agar) [%]
CC(C)NC(=O)c1c(F)cccc1[S+]([O-])C(C)(C)C (stereo not drawn) [Example 196, N-(1-Methylethyl)-2-[(1,1-dimethylethyl)sulfinyl]-6-fluorobenzamide]	3	56	100	–	–	–
CCNC(=O)n1cccc1[Si](C)(C)C [Example 178, N-Ethyl-2-(trimethylsilyl)-1H-pyrrole-1-carboxamide]	< 0	15	54	–	–	–
C[Si](C)(C)c1cccc(Cl)c1C(=O)NC1CCCCC1 [Example 129, 2-Chloro-N-cyclohexyl-6-(trimethylsilyl)benzamide]	9	35	26	–	–	–
C#CCNC(=O)c1c(I)cccc1[Si](C)(C)C [Example 208, 2-Iodo-N-2-propynyl-6-(trimethylsilyl)benzamide]	< 0	83	97	–	–	–
CCNC(=O)C1=CSC(Cl)N1[Si](C)(C)C (stereo not drawn) [Example 283, 2-Chloro-N-ethyl-3-(trimethylsilyl)-4-thiazolecarboxamide]	< 0	3	42	–	–	–
CCNC(=O)c1cc(C(F)(F)F)ccc1[Si](C)(C)C [Example 225, N-Ethyl-5-(trifluoromethyl)-2-(trimethylsilyl)benzamide]	18	64	95	–	–	–
Cc1ccccc1NC(=O)c1ccccc1[Si](C)(C)C [Example 121, N-(2-Methylphenyl)-2-(trimethylsilyl)benzamide]	4	8	31	–	–	–
C[Si](C)(C)c1ccc(F)c([Si](C)(C)C)c1C(=O)N1CCCC1 [Example 118, 1-[3-Fluoro-2,6-bis(trimethylsilyl)benzoyl]pyrrolidine]	< 0	< 0	38	–	–	–
C#CCNC(=O)c1c(Br)cccc1[Si](C)(C)C [Example 206, 2-Bromo-N-2-propynyl-6-(trimethylsilyl)benzamide]	86	97	100	–	–	–
CCOC(=O)Nc1c(Cl)cccc1[Si](C)(C)C [Example 109, [2-Chloro-6-(trimethylsilyl)phenyl]carbamic acid, ethyl ester]	10	10	83	–	–	–
C[Si](C)(C)c1cccc(Cl)c1C(=O)NCC#N [Example 142, 2-Chloro-N-(cyanomethyl)-6-(trimethylsilyl)benzamide]	< 0	< 0	59	–	–	–
CCNC(=O)c1c(Cl)cccc1[Si](C)(C)C1CC2CCC1C2 (stereo not drawn) [Example 183, 2-(Bicyclo[2.2.1]Hept-2-yldimethylsilyl)-6-chloro-N-ethylbenzamide]	24	35	56	–	–	–
CC(C)N(C)C(=O)c1c(Cl)cccc1[Si](C)(C)C [Example 164, 2-Chloro-N-methyl-N-(1-methylethyl)-6-(trimethylsilyl)benzamide]	3	3	70	–	–	–
CCN(CC)C(=O)c1ccc(C)c(F)c1[Si](C)(C)C [Example 57, N,N-Diethyl-3-fluoro-4-methyl-2-(trimethylsilyl)benzamide]	10	< 0	90	–	–	–
CCNC(=S)c1c(Cl)cccc1[Si](C)(C)C [Example 76, 2-Chloro-N-ethyl-6-(trimethylsilyl)thiobenzamide]	< 0	45	79	–	–	–
CCN(CC)C(=O)c1ccc(C)cc1[Si](C)(C)C [Example 58, N,N-Diethyl-4-methyl-2-(trimethylsilyl)benzamide]	13	6	55	–	–	–
CCNC(=O)c1c(Cl)cccc1-c1ccc2ccccc2c1 [Example 122, 2-Chloro-N-ethyl-6-(2-naphthalenyl)benzamide]	< 0	< 0	67	–	–	–
CCN(CC)C(=S)c1ccc(C)c(F)c1[Si](C)(C)C [Example 75, N,N-Diethyl-3-fluoro-4-methyl-2-(trimethylsilyl)thiobenzamide]	5	26	31	–	–	–
